# According to ChEMBL document CHEMBL3885861, “Open TG-GATES”:
# Species on record: Rattus norvegicus
# Test: Open TG-GATES - Regimen: Daily Repeat
# Format: toxicity, organism-based, Sprague-Dawley
# Set-up: regimen Daily Repeat, gender Male, age 6 weeks
# Conditions: in vivo, po, route gavage; for Eos / Fbg / Hb / Ht / Lym / MCH / MCHC / MCV / Mono / PT / Plat / RBC / Ret / WBC / APTT / Bas: tissue Blood; for KIDNEY_L / KIDNEY_R / KIDNEY_TOTAL: tissue Kidney
# [1] = 60 mg/kg, 72 h, dose level Middle, time 3 day
# [2] = 60 mg/kg, 72 h, tissue Plasma, dose level Middle, time 3 day
# [3] = 60 mg/kg, […], dose level Middle, time 7 day
# [4] = 60 mg/kg, […], dose level Middle, time 14 day
# [5] = 60 mg/kg, […], dose level Middle, time 28 day
# [6] = 60 mg/kg, […], tissue Plasma, dose level Middle, time 7 day
# [7] = 60 mg/kg, […], tissue Plasma, dose level Middle, time 14 day
# [8] = 60 mg/kg, […], tissue Plasma, dose level Middle, time 28 day
# [9] = 200 mg/kg, 72 h, dose level High, time 3 day
smiles,measurement,setting,value
CC(C)Cc1ccc(C(C)C(=O)O)cc1 (configuration not stated) [IBUPROFEN],Eos,[1],0.8%
same,Fbg,[1],340.8 mg/dL
same,Hb,[1],13.2 g/dL
same,Ht,[1],39%
same,Lym,[1],73.8%
same,MCH,[1],21 pg
same,MCHC,[1],33.9%
same,MCV,[1],61.9 fL
same,Mono,[1],2.6%
same,PT,[1],16 s
same,Plat,[1],115.2 x10_4/uL
same,RBC,[1],629.8 x10_4/ul
same,Ret,[1],6.7%
same,WBC,[1],115.1 x10_2/uL
same,KIDNEY_L,[1],0.9 g
same,KIDNEY_R,[1],1 g
same,KIDNEY_TOTAL,[1],1.9 g
same,ALP,[2],1603.6 IU/L
same,ALT,[2],45 IU/L
same,AST,[2],80.4 IU/L
same,BUN,[2],17.8 mg/dL
same,CRE,[2],0.2 mg/dL
same,DBIL,[2],0 mg/dL
same,GLC,[2],184.6 mg/dL
same,IP,[2],7.2 mg/dL
same,K,[2],4.4 meq/L
same,LDH,[2],237 IU/L
same,Na,[2],141.4 meq/L
same,PL,[2],138.4 mg/dL
same,RALB,[2],2.9 g/dL
same,TBIL,[2],0.002 mg/dL
same,TC,[2],73.4 mg/dL
same,TG,[2],130.8 mg/dL
same,TP,[2],5.4 g/dL
same,gamma-GTP,[2],1.4 IU/L
same,TERMINAL_BW,[3],253.3 g
same,TERMINAL_BW,[4],297.5 g
same,TERMINAL_BW,[5],379.8 g
same,APTT,[3],20.6 s
same,Bas,[3],0%
same,Eos,[3],1%
same,Fbg,[3],313.2 mg/dL
same,Hb,[3],12.9 g/dL
same,Ht,[3],37.4%
same,Lym,[3],68.6%
same,MCH,[3],21.3 pg
same,MCHC,[3],34.4%
same,MCV,[3],62 fL
same,Mono,[3],3%
same,PT,[3],15.8 s
same,Plat,[3],132.1 x10_4/uL
same,RBC,[3],605 x10_4/ul
same,Ret,[3],8.2%
same,WBC,[3],133.5 x10_2/uL
same,APTT,[4],23.6 s
same,Bas,[4],0%
same,Eos,[4],1%
same,Fbg,[4],326.2 mg/dL
same,Ht,[4],41%
same,Lym,[4],75.8%
same,MCHC,[4],33.9%
same,MCV,[4],61.4 fL
same,Mono,[4],2.8%
same,PT,[4],16.1 s
same,RBC,[4],670.4 x10_4/ul
same,Ret,[4],5.7%
same,WBC,[4],126.7 x10_2/uL
same,APTT,[5],24.2 s
same,Bas,[5],0%
same,Eos,[5],1.8%
same,Fbg,[5],333 mg/dL
same,Hb,[5],14.8 g/dL
same,Ht,[5],43.5%
same,Lym,[5],75.2%
same,MCH,[5],19 pg
same,MCHC,[5],34%
same,MCV,[5],56 fL
same,Mono,[5],1.8%
same,Plat,[5],102 x10_4/uL
same,RBC,[5],777.2 x10_4/ul
same,Ret,[5],2.8%
same,WBC,[5],93.9 x10_2/uL
same,KIDNEY_L,[3],1.1 g
same,KIDNEY_R,[3],1.1 g
same,KIDNEY_TOTAL,[3],2.1 g
same,KIDNEY_L,[4],1.2 g
same,KIDNEY_R,[4],1.2 g
same,KIDNEY_TOTAL,[4],2.4 g
same,KIDNEY_L,[5],1.3 g
same,KIDNEY_R,[5],1.4 g
same,KIDNEY_TOTAL,[5],2.7 g
same,ALP,[6],1376 IU/L
same,ALT,[6],44.2 IU/L
same,AST,[6],78 IU/L
same,BUN,[6],18.6 mg/dL
same,CRE,[6],0.2 mg/dL
same,DBIL,[6],0 mg/dL
same,GLC,[6],188.4 mg/dL
same,IP,[6],7.3 mg/dL
same,K,[6],4 meq/L
same,LDH,[6],187.6 IU/L
same,Na,[6],139.2 meq/L
same,PL,[6],154.4 mg/dL
same,RALB,[6],3 g/dL
same,TBIL,[6],0.004 mg/dL
same,TC,[6],75.6 mg/dL
same,TG,[6],136.4 mg/dL
same,TP,[6],5.4 g/dL
same,gamma-GTP,[6],2.4 IU/L
same,ALP,[7],1198.6 IU/L
same,ALT,[7],41.2 IU/L
same,AST,[7],69.2 IU/L
same,CRE,[7],0.2 mg/dL
same,DBIL,[7],0 mg/dL
same,GLC,[7],189.4 mg/dL
same,IP,[7],8.1 mg/dL
same,K,[7],4.1 meq/L
same,LDH,[7],147.6 IU/L
same,Na,[7],141 meq/L
same,PL,[7],154 mg/dL
same,RALB,[7],3 g/dL
same,TBIL,[7],0.004 mg/dL
same,TC,[7],76.6 mg/dL
same,TG,[7],139 mg/dL
same,TP,[7],5.6 g/dL
same,gamma-GTP,[7],2.2 IU/L
same,ALP,[8],1187.4 IU/L
same,ALT,[8],40.8 IU/L
same,AST,[8],67.8 IU/L
same,BUN,[8],20 mg/dL
same,CRE,[8],0.2 mg/dL
same,Ca,[8],10.4 mg/dL
same,DBIL,[8],0 mg/dL
same,GLC,[8],186.2 mg/dL
same,IP,[8],6.7 mg/dL
same,K,[8],3.9 meq/L
same,LDH,[8],150.6 IU/L
same,Na,[8],142.4 meq/L
same,PL,[8],147 mg/dL
same,RALB,[8],3.2 g/dL
same,TBIL,[8],0.002 mg/dL
same,TC,[8],71.8 mg/dL
same,TG,[8],139 mg/dL
same,TP,[8],6 g/dL
same,gamma-GTP,[8],2.6 IU/L
same,TERMINAL_BW,[9],206.3 g
same,APTT,[9],19.6 s
